According to US20130212744A1, “METHOD OF REDUCING INSECT-VECTORED VIRAL INFECTIONS” (priority 2010, published 2013):
Where two headings read alike, the source gives them in different places.

Columns and labels:
Assay type in all cases: in vivo
[1] = tested on: whitefly Bemisia tabaci nymphs; experiment: Soil use (drench) field trial on tomato, efficacy on whitefly nymphs; details: for Emax at 100 g/ha: 100 g ai/ha; for Emax at 150 g/ha: 150 g ai/ha
Experimental: Two soil applied studies were carried out in Elhasanya, Egypt in 2009 on tomato plants with the main goal to measure efficacy on the whitefly Bemisia tabaci. The plot size was 4.8 m^2 and 6 replicates were used in the trial. […] The spray volume was at the first application 350 l/ha. The evaluation of this study was done counting the adult whiteflies (Bemisia tabaci) as well as the nymphs and the eggs in each plot. In addition to the direct whitefly effect, visual symptoms of the virus, mainly TYLCV (tomato yellow leaf curl virus) were evaluated also.

[2] = tested on: TYLCV (tomato yellow leaf curl virus); experiment: Foliar use field trial on tomato, infected leaf area by TYLC virus
Experimental: (§1) Two studies were carried out in Elhasanya, Egypt in 2009 on tomato plants of the variety Fayrouz with the main goal to measure efficacy on the whitefly Bemisia tabaci. The plot size was 4.8 m^2 and 6 replicates were used in the trial. Products were applied 3 times on young tomato plants at BBCH stages 14, 17 and 51 at spray intervals between 12 and 19 days. The spray volume was at the first application 350 l/ha and later 500 l/ha. The evaluation of this study was done counting the adult whiteflies (Bemisia tabaci) as well as the nymphs and the eggs in each plot. In addition to the direct whitefly effect, visual symptoms of the virus, mainly TYLCV (tomato yellow leaf curl virus) were evaluated also.
(§2) ASM=Acibenzolar-S-methyl. WG 50=Actigard® 50WG, a water-dispersible granule with the active ingredient ASM CYNT=Cyantraniliprole. WG 40=Cyazypyr®, a water dispersable granule with the active ingredient CYNT. Results on whitefly adults. Trial 1
Evaluation of percentage of infected leaf area by TYLC virus (average of 45 plants evaluated per treatment) Trial 1

[3] = tested on: whitefly Bemisia tabaci nymphs; experiment: Foliar use field trial on tomato, efficacy on whitefly nymphs; details: Bemisia tabaci, foliar, 75 g ai/hl, read-out: % Efficacy on Nymphs
Experimental: as §1, §2

CNC(=O)c1cc(C#N)cc(C)c1NC(=O)c1cc(Br)nn1-c1ncccc1Cl [CYNT, 3-bromo-1-(3-chloro-2-pyridyl)-4′-cyano-2′-methyl-6′-(methylcarbamoyl)pyrazole-5-carboxanilide] was tested, and the Emax at 100 g/ha ([1]; 25DAA1, Trial 2) was 60%, the Emax at 100 g/ha ([1]; 30DAA1, Trial 2) was 34% and the Emax at 100 g/ha ([1]; 35DAA1, Trial 2) was 63%. The Emax at 100 g/ha ([1]; 40DAA2, Trial 2) was 52%, the Emax at 150 g/ha ([1]; 25DAA1, Trial 2) was 78% and the Emax at 150 g/ha ([1]; 30DAA1, Trial 2) was 79%. For the same compound, the Emax at 150 g/ha ([1]; 35DAA1, Trial 2) was 77%, the Emax at 150 g/ha ([1]; 40DAA2, Trial 2) was 61% and the Emax at 100 g/ha ([1]; 240 h, 10DAA, Trial 1) was 67%. It also gave an Emax at 150 g/ha ([1]; 240 h, 10DAA, Trial 1) of 69%, an Emax at 100 g/ha ([1]; 360 h, 15DAA, Trial 1) of 65% and an Emax at 150 g/ha ([1]; 360 h, 15DAA, Trial 1) of 84%. For the same compound, the Emax at 100 g/ha ([1]; 480 h, 20DAA, Trial 1) was 59%, the Emax at 150 g/ha ([1]; 480 h, 20DAA, Trial 1) was 84% and the Emax at 100 g/ha ([1]; 600 h, 25DAA, Trial 1) was 39%. For the same compound, the Emax at 150 g/ha ([1]; 600 h, 25DAA, Trial 1) was 77%, the Emax at 100 g/ha ([1]; 720 h, 30DAA, Trial 1) was 28% and the Emax at 150 g/ha ([1]; 720 h, 30DAA, Trial 1) was 74%. It also gave an Emax at 100 g/ha ([1]; 840 h, 35DAA, Trial 1) of 24%, an Emax at 150 g/ha ([1]; 840 h, 35DAA, Trial 1) of 70% and an Emax at 100 g/ha ([1]; 960 h, 40DAA, Trial 1) of 13%. For the same compound, the Emax at 150 g/ha ([1]; 960 h, 40DAA, Trial 1) was 64%, the “% Infected Surface area with virus / plant” value ([2]; 75 g ai/hl, 5DAA2, Trial 1) was 0.0% and the “% Infected Surface area with virus / plant” value ([2]; 75 g ai/hl, 5DAA2, Trial 2) was 0.0%. For the same compound, the “% Infected Surface area with virus / plant” value ([2]; 75 g ai/hl, 5DAA3, Trial 1) was 3.0%, the “% Infected Surface area with virus / plant” value ([2]; 75 g ai/hl, 5DAA3, Trial 2) was 3.0% and the “% Infected Surface area with virus / plant” value ([2]; 75 g ai/hl, 10DAA3, Trial 1) was 5.1%. For the same compound, the “% Infected Surface area with virus / plant” value ([2]; 75 g ai/hl, 10DAA3, Trial 2) was 5.1%, the “% Infected Surface area with virus / plant” value ([2]; 75 g ai/hl, 15DAA3, Trial 1) was 7.1% and the “% Infected Surface area with virus / plant” value ([2]; 75 g ai/hl, 15DAA3, Trial 2) was 7.1%. The “% Infected Surface area with virus / plant” value ([2]; 75 g ai/hl, 20DAA3, Trial 1) was 9.8%, the “% Infected Surface area with virus / plant” value ([2]; 75 g ai/hl, 20DAA3, Trial 2) was 9.8% and the “% Infected Surface area with virus / plant” value ([2]; 75 g ai/hl, 24DAA3, Trial 1) was 10.3%. For the same compound, the “% Infected Surface area with virus / plant” value ([2]; 75 g ai/hl, 24DAA3, Trial 2) was 10.3%, the “% Infected Surface area with virus / plant” value ([2]; 100 g ai/hl, 5DAA2, Trial 1) was 0.8% and the “% Infected Surface area with virus / plant” value ([2]; 100 g ai/hl, 5DAA2, Trial 2) was 0.8%. For the same compound, the “% Infected Surface area with virus / plant” value ([2]; 100 g ai/hl, 5DAA3, Trial 1) was 1.9%, the “% Infected Surface area with virus / plant” value ([2]; 100 g ai/hl, 5DAA3, Trial 2) was 1.9% and the “% Infected Surface area with virus / plant” value ([2]; 100 g ai/hl, 10DAA3, Trial 1) was 3.1%. For the same compound, the “% Infected Surface area with virus / plant” value ([2]; 100 g ai/hl, 10DAA3, Trial 2) was 3.1%, the “% Infected Surface area with virus / plant” value ([2]; 100 g ai/hl, 15DAA3, Trial 1) was 3.9% and the “% Infected Surface area with virus / plant” value ([2]; 100 g ai/hl, 15DAA3, Trial 2) was 3.9%. The “% Infected Surface area with virus / plant” value ([2]; 100 g ai/hl, 20DAA3, Trial 1) was 4.5%, the “% Infected Surface area with virus / plant” value ([2]; 100 g ai/hl, 20DAA3, Trial 2) was 4.5% and the “% Infected Surface area with virus / plant” value ([2]; 100 g ai/hl, 24DAA3, Trial 1) was 5.3%. The “% Infected Surface area with virus / plant” value ([2]; 100 g ai/hl, 24DAA3, Trial 2) was 5.3%, the Emax ([3]; 5DAA2, Trial 1) was 27% and the Emax ([3]; 5DAA2, Trial 2) was 27%. For the same compound, the Emax ([3]; 5DAA3, Trial 1) was 72%, the Emax ([3]; 5DAA3, Trial 2) was 72% and the Emax ([3]; 10DAA2, Trial 1) was 48%. The Emax ([3]; 10DAA2, Trial 2) was 48% and the Emax ([3]; 10DAA3, Trial 1) was 65%.
